Experimental data: publication PMC7932537, “Quantitative profiling of protease specificity” (PLoS Computational Biology, 2021)

Assays:
MMP-9 = experiment: N-terminomic (TMT) analysis of MMP-treated HEK293 secretome: isotopic enrichment of novel N-termini; format: biochemical, human; details: for isotopic enrichment (log2(ratio)) (acc.to MMP9): HEK293 proteins; for isotopic enrichment (log2(ratio)): MMP9 cleavages in HEK293 cell proteins, determined by LC-MS/MS, log2(ratio) range (>3σ, 2σ-3σ, 1σ-2σ)
Procedure: (§1) This was done to achieve a reasonable compromise between the false positive and false negative rates based on the statistical model developed by the authors. […] (See Methods for details).
(§2) HEK293 cells were seeded in 150-mm tissue culture dishes (Corning) and grown to confluence. The confluent cultures were washed with PBS several times to remove serum proteins and kept in serum-free DMEM supplemented with 1 μM GM6001 for 72 hours at 37 C, 5% CO2. The conditioned media was centrifuged at 10,000 x g for 30 minutes at 4 C and concentrated ~100-fold using Centricon Plus-70 (AMD Millipore) 3-kDa m.w. cut-off ultrafilter, and the buffer was exchanged to 50 mM HEPES pH 7.0 containing 150 mM NaCl and 10 mM CaCl2 (Reaction Buffer) using a PD-10 desalting column (GE Healthcare). Aliquots containing 240 μg total protein were incubated at 37 C in the presence of 750 nM MMP2 or 9 or the Reaction Buffer alone for 2 hours. Each reaction was carried out in duplicate. The reactions were stopped by addition of 20 mM EDTA and subjected to denaturation/reduction (4M Urea and 10 mM TCEP, 1 h, 22°C) and alkylation (20 mM iodoacetamide, 30 min, 22°C, in dark). […] The TMT-labeled samples were pooled together, and subjected to TCA precipitation (20% TCA, 16 h, 4°C). Each pellet was washed with -20°C acetone, recovered in 50 mM Tris-HCl pH 8.0, and then digested with trypsin/Lys-C (Promega) for 16 h at 37°C. Digestions were stopped with 0.2% TFA and centrifuged to remove insoluble material. The supernatants were then desalted using Sep-Pak C18 cartridge (50 mg), and then lyophilized.
(§3) Dried pooled sample was reconstituted in 20 mM ammonium formate pH ~10 and fractionated using a Waters Acquity BEH C18 column (2.1x 15 cm, 1.7 μm pore size) mounted on an M-Class Ultra Performance Liquid Chromatography (UPLC) system (Waters). […] A total of 32 fractions were collected and pooled in a non-contiguous manner into 16 total fractions. Pooled fractions were dried to completeness in a SpeedVac concentrator prior to mass spectrometry analysis.
(§4) Dried peptide fractions were reconstituted with 2% ACN-0.1% FA and analyzed by LC-MS/MS using a Proxeon EASY nanoLC system (Thermo Fisher Scientific) coupled to a Q-Exactive Plus mass spectrometer (Thermo Fisher Scientific). […] The mass spectrometer was operated in positive data-dependent acquisition mode. MS1 spectra were measured with a resolution of 70,000 (AGC target: 1e6; mass range: 350–1700 m/z).
(§5) The false discovery rate (FDR) filter for spectrum and protein identification was set to 1%. Carbamidomethylation of cysteines was searched as a fixed modification, while oxidation of methionines and N-terminal acetylation were searched as variable modifications. Enzyme was set to trypsin in a semispecific mode and a maximum of two missed cleavages was allowed for searching. To obtain quantification of the TMT-labeled N-termini, two independent searches were performed–one with TMT10plex MS2 N-terminal reporter quantification and the other for quantification of N-terminal and lysine sidechain.

MMP-2 = experiment: as above; format: biochemical, human; details: for isotopic enrichment (log2(ratio)): MMP2 cleavages in HEK293 cell proteins, determined by LC-MS/MS, novel N-termini, sections log2(ratio) >3σ, 2σ-3σ, 1σ-2σ, RP above 4.5
Procedure: as §1, §2, §3, §4, §5

[1] = MMP9, common set of MMP2-9 selectome, LC-MS/MS
[2] = MS detected cleavage sequence, common MMP2-9 selectome
[3] = MMP2 cleaved HEK293 proteins, common set of MMP2-9 selectome, LC-MS/MS
[4] = MS detected cleavage sequence, HEK293 proteins, common MMP2-9 selectome
[5] = MS detected cleavage sequence, unique part of MMP2 selectome
[6] = MS detected cleavage sequence, HEK293 proteins, unique part of MMP2 selectome

## IFLRE-LISNAS
MMP-9; [1]
  isotopic enrichment (log2(ratio)) (acc.to MMP9): 1.628
MMP-9
  isotopic enrichment (log2(ratio)): 1.628
MMP-9; [2]
  isotopic enrichment (log2(ratio)) (acc.to MMP9): 1.628 log2(ratio)
MMP-2; [3]
  isotopic enrichment (log2(ratio)) (acc.to MMP2): 1.176
MMP-2; [4]
  isotopic enrichment (log2(ratio)) (acc.to MMP2): 1.176 log2(ratio)

## ISPGM-IKDCGA
MMP-9; [1]
  isotopic enrichment (log2(ratio)) (acc.to MMP9): 2.036
MMP-9
  isotopic enrichment (log2(ratio)): 2.036
MMP-9; [2]
  isotopic enrichment (log2(ratio)) (acc.to MMP9): 2.036 log2(ratio)
MMP-2; [3]
  isotopic enrichment (log2(ratio)) (acc.to MMP2): 1.183
MMP-2; [4]
  isotopic enrichment (log2(ratio)) (acc.to MMP2): 1.183 log2(ratio)

## KRIAN-LQTDLS
MMP-9; [1]
  isotopic enrichment (log2(ratio)) (acc.to MMP9): 1.791
MMP-9
  isotopic enrichment (log2(ratio)): 1.791
MMP-9; [2]
  isotopic enrichment (log2(ratio)) (acc.to MMP9): 1.791 log2(ratio)
MMP-2; [3]
  isotopic enrichment (log2(ratio)) (acc.to MMP2): 1.918
MMP-2; [4]
  isotopic enrichment (log2(ratio)) (acc.to MMP2): 1.918 log2(ratio)

## KYIGN-MHGNEA
MMP-9; [1]
  isotopic enrichment (log2(ratio)) (acc.to MMP9): 1.07
MMP-2
  isotopic enrichment (log2(ratio)): 1.124 log2(ratio)
MMP-2; [3]
  isotopic enrichment (log2(ratio)) (acc.to MMP2): 1.124

## LDVGG-LQETDK
MMP-9; [1]
  isotopic enrichment (log2(ratio)) (acc.to MMP9): 1.718
MMP-9
  isotopic enrichment (log2(ratio)): 1.718
MMP-9; [2]
  isotopic enrichment (log2(ratio)) (acc.to MMP9): 1.718 log2(ratio)
MMP-2; [3]
  isotopic enrichment (log2(ratio)) (acc.to MMP2): 3.076
MMP-2; [4]
  isotopic enrichment (log2(ratio)) (acc.to MMP2): 3.076 log2(ratio)

## LFIGG-LSFETT
MMP-9; [5]
  isotopic enrichment (log2(ratio)) (acc.to MMP9): 1.4957 log2(ratio)
MMP-2; [6]
  isotopic enrichment (log2(ratio)) (acc.to MMP2): 2.3505 log2(ratio)

## LPAMP-MQGGAQ
MMP-9; [1]
  isotopic enrichment (log2(ratio)) (acc.to MMP9): 3.876
MMP-9
  isotopic enrichment (log2(ratio)): 3.876
MMP-9; [2]
  isotopic enrichment (log2(ratio)) (acc.to MMP9): 3.876 log2(ratio)
MMP-2; [3]
  isotopic enrichment (log2(ratio)) (acc.to MMP2): 3.329
MMP-2; [4]
  isotopic enrichment (log2(ratio)) (acc.to MMP2): 3.329 log2(ratio)

## MEPVA-HFGLGK
MMP-9
  isotopic enrichment (log2(ratio)): 1.731
MMP-9; [2]
  isotopic enrichment (log2(ratio)) (acc.to MMP9): 1.731 log2(ratio)
MMP-2; [4]
  isotopic enrichment (log2(ratio)) (acc.to MMP2): 0.3448 log2(ratio)

## MPMF-IVNTNV
MMP-9
  isotopic enrichment (log2(ratio)): 1.66
MMP-9; [2]
  isotopic enrichment (log2(ratio)) (acc.to MMP9): 1.66 log2(ratio)
MMP-2; [4]
  isotopic enrichment (log2(ratio)) (acc.to MMP2): 0.8319 log2(ratio)

## MSPQL-LYDAAP
MMP-9
  isotopic enrichment (log2(ratio)): 1.465
MMP-9; [2]
  isotopic enrichment (log2(ratio)) (acc.to MMP9): 1.465 log2(ratio)
MMP-2; [4]
  isotopic enrichment (log2(ratio)) (acc.to MMP2): 0.5656 log2(ratio)

## MVPRA-VYLPNC
MMP-9; [1]
  isotopic enrichment (log2(ratio)) (acc.to MMP9): 2.491
MMP-9
  isotopic enrichment (log2(ratio)): 2.491
MMP-9; [2]
  isotopic enrichment (log2(ratio)) (acc.to MMP9): 2.491 log2(ratio)
MMP-2; [3]
  isotopic enrichment (log2(ratio)) (acc.to MMP2): 1.989
MMP-2; [4]
  isotopic enrichment (log2(ratio)) (acc.to MMP2): 1.989 log2(ratio)

## NFIQS-IISTVE
MMP-9; [5]
  isotopic enrichment (log2(ratio)) (acc.to MMP9): 1.111 log2(ratio)
MMP-2
  isotopic enrichment (log2(ratio)): 0.903 log2(ratio)

## NFLSW-LYNDSP
MMP-9; [1]
  isotopic enrichment (log2(ratio)) (acc.to MMP9): 1.57
MMP-9
  isotopic enrichment (log2(ratio)): 1.57
MMP-9; [2]
  isotopic enrichment (log2(ratio)) (acc.to MMP9): 1.57 log2(ratio)
MMP-2; [3]
  isotopic enrichment (log2(ratio)) (acc.to MMP2): 1.971
MMP-2; [4]
  isotopic enrichment (log2(ratio)) (acc.to MMP2): 1.971 log2(ratio)

## NFWGA-LSADGY
MMP-9; [5]
  isotopic enrichment (log2(ratio)) (acc.to MMP9): 0.9855 log2(ratio)
MMP-2; [6]
  isotopic enrichment (log2(ratio)) (acc.to MMP2): 1.683 log2(ratio)

## PALAY-LASAPP
MMP-9; [5]
  isotopic enrichment (log2(ratio)) (acc.to MMP9): 0.4436 log2(ratio)
MMP-2; [6]
  isotopic enrichment (log2(ratio)) (acc.to MMP2): 1.345 log2(ratio)

## PEPES-WNAAQH
MMP-9; [5]
  isotopic enrichment (log2(ratio)) (acc.to MMP9): 1.956 log2(ratio)
MMP-2; [6]
  isotopic enrichment (log2(ratio)) (acc.to MMP2): 1.66 log2(ratio)

## PEPPP-LSGAPQ
MMP-9; [1]
  isotopic enrichment (log2(ratio)) (acc.to MMP9): 1.9855
MMP-9
  isotopic enrichment (log2(ratio)): 1.9855
MMP-9; [2]
  isotopic enrichment (log2(ratio)) (acc.to MMP9): 1.9855 log2(ratio)
MMP-2; [3]
  isotopic enrichment (log2(ratio)) (acc.to MMP2): 1.367
MMP-2; [4]
  isotopic enrichment (log2(ratio)) (acc.to MMP2): 1.367 log2(ratio)

## PFPDG-LAEDID
MMP-9
  isotopic enrichment (log2(ratio)): 3.878
MMP-9; [2]
  isotopic enrichment (log2(ratio)) (acc.to MMP9): 3.878 log2(ratio)
MMP-2; [4]
  isotopic enrichment (log2(ratio)) (acc.to MMP2): 0.9928 log2(ratio)

## PQAKA-LLQDKD
MMP-9; [1]
  isotopic enrichment (log2(ratio)) (acc.to MMP9): 1.48
MMP-9
  isotopic enrichment (log2(ratio)): 1.48
MMP-9; [2]
  isotopic enrichment (log2(ratio)) (acc.to MMP9): 1.48 log2(ratio)
MMP-2; [4]
  isotopic enrichment (log2(ratio)) (acc.to MMP2): 0.9928 log2(ratio)

## PTAAA-IAYGLD
MMP-9; [1]
  isotopic enrichment (log2(ratio)) (acc.to MMP9): 0.8074
MMP-2
  isotopic enrichment (log2(ratio)): 1.585 log2(ratio)
MMP-2; [3]
  isotopic enrichment (log2(ratio)) (acc.to MMP2): 1.585

## PTPVP-VVGSQM
MMP-9; [1]
  isotopic enrichment (log2(ratio)) (acc.to MMP9): 2.707
MMP-9
  isotopic enrichment (log2(ratio)): 2.707
MMP-9; [2]
  isotopic enrichment (log2(ratio)) (acc.to MMP9): 2.707 log2(ratio)
MMP-2; [3]
  isotopic enrichment (log2(ratio)) (acc.to MMP2): 1.915
MMP-2; [4]
  isotopic enrichment (log2(ratio)) (acc.to MMP2): 1.915 log2(ratio)

## QLNAQ-LAAGNP
MMP-9; [5]
  isotopic enrichment (log2(ratio)) (acc.to MMP9): 0.8237 log2(ratio)
MMP-2; [6]
  isotopic enrichment (log2(ratio)) (acc.to MMP2): 1.66 log2(ratio)

## QSPVA-VSQSKP
MMP-9; [1]
  isotopic enrichment (log2(ratio)) (acc.to MMP9): 4.621
MMP-9
  isotopic enrichment (log2(ratio)): 4.621
MMP-9; [2]
  isotopic enrichment (log2(ratio)) (acc.to MMP9): 4.621 log2(ratio)
MMP-2; [3]
  isotopic enrichment (log2(ratio)) (acc.to MMP2): 4.031
MMP-2; [4]
  isotopic enrichment (log2(ratio)) (acc.to MMP2): 4.031 log2(ratio)

## RKATP-YTFPGG
MMP-9; [1]
  isotopic enrichment (log2(ratio)) (acc.to MMP9): 1.753
MMP-9
  isotopic enrichment (log2(ratio)): 1.753
MMP-9; [2]
  isotopic enrichment (log2(ratio)) (acc.to MMP9): 1.753 log2(ratio)
MMP-2; [3]
  isotopic enrichment (log2(ratio)) (acc.to MMP2): 1.541
MMP-2; [4]
  isotopic enrichment (log2(ratio)) (acc.to MMP2): 1.541 log2(ratio)

## RTLRA-VCGQPG
MMP-9
  isotopic enrichment (log2(ratio)): 1.47
MMP-9; [2]
  isotopic enrichment (log2(ratio)) (acc.to MMP9): 1.47 log2(ratio)
MMP-2; [4]
  isotopic enrichment (log2(ratio)) (acc.to MMP2): 0.2987 log2(ratio)

## SDPLT-LLQADT
MMP-9; [1]
  isotopic enrichment (log2(ratio)) (acc.to MMP9): 2.254
MMP-9
  isotopic enrichment (log2(ratio)): 2.254
MMP-9; [2]
  isotopic enrichment (log2(ratio)) (acc.to MMP9): 2.254 log2(ratio)
MMP-2
  isotopic enrichment (log2(ratio)): 1.22 log2(ratio)
MMP-2; [3]
  isotopic enrichment (log2(ratio)) (acc.to MMP2): 1.22
MMP-2; [4]
  isotopic enrichment (log2(ratio)) (acc.to MMP2): 2.4906 log2(ratio)

## SEPAD-FKVDED
MMP-9; [1]
  isotopic enrichment (log2(ratio)) (acc.to MMP9): 1.104
MMP-2
  isotopic enrichment (log2(ratio)): 1.891 log2(ratio)
MMP-2; [3]
  isotopic enrichment (log2(ratio)) (acc.to MMP2): 1.891

## SHLGR-YLAADK
MMP-9; [5]
  isotopic enrichment (log2(ratio)) (acc.to MMP9): -1.0291 log2(ratio)
MMP-2; [6]
  isotopic enrichment (log2(ratio)) (acc.to MMP2): 2.483 log2(ratio)

## SLARA-YSSFNP
MMP-9; [1]
  isotopic enrichment (log2(ratio)) (acc.to MMP9): 2.539
MMP-9
  isotopic enrichment (log2(ratio)): 2.539
MMP-9; [2]
  isotopic enrichment (log2(ratio)) (acc.to MMP9): 2.539 log2(ratio)
MMP-2; [3]
  isotopic enrichment (log2(ratio)) (acc.to MMP2): 2.269
MMP-2; [4]
  isotopic enrichment (log2(ratio)) (acc.to MMP2): 2.269 log2(ratio)

## SSAAA-LSLCEG
MMP-9; [1]
  isotopic enrichment (log2(ratio)) (acc.to MMP9): 0.3785
MMP-2
  isotopic enrichment (log2(ratio)): 1.036 log2(ratio)
MMP-2; [3]
  isotopic enrichment (log2(ratio)) (acc.to MMP2): 1.036
